Results from the NIST ThermoML archive (doi:10.1021/acs.jced.6b00026).

Test: xn = mol fraction of the nth substance listed
Conditions: Fluid (supercritical or subcritical phases), Buoyancy - hydrostatic balance with magnetic suspension - one sinker

CCCCCCCCCCC [undecane] + O=C=O
Conditions	mass density [kg/m3]
313.18 K, 8001 kPa, x2 = 0.6797	776.08
313.18 K, 13999 kPa, x2 = 0.2483	745.92
313.18 K, 16002 kPa, x2 = 0.6797	808.24
313.18 K, 18070 kPa, x2 = 0.8874	825.37
313.18 K, 18977 kPa, x2 = 0.2483	749.97
313.19 K, 16008 kPa, x2 = 0.2483	747.58
313.19 K, 19014 kPa, x2 = 0.6797	817.41
313.2 K, 10002 kPa, x2 = 0.6797	785.54
313.2 K, 12013 kPa, x2 = 0.2483	744.22
313.21 K, 8004 kPa, x2 = 0.2483	740.68
313.21 K, 10007 kPa, x2 = 0.2483	742.45
313.21 K, 12003 kPa, x2 = 0.6797	793.85
313.21 K, 13997 kPa, x2 = 0.6797	801.3
313.21 K, 18002 kPa, x2 = 0.2483	749.16
313.22 K, 19000 kPa, x2 = 0.4641	772.52
313.23 K, 16004 kPa, x2 = 0.4641	769.05
313.23 K, 17996 kPa, x2 = 0.4641	771.37
313.24 K, 10003 kPa, x2 = 0.4641	761.59
313.24 K, 12000 kPa, x2 = 0.4641	764.15
313.24 K, 18003 kPa, x2 = 0.6797	814.33
313.25 K, 7997 kPa, x2 = 0.4641	758.91
313.26 K, 10039 kPa, x2 = 0.8874	773.99
313.26 K, 11990 kPa, x2 = 0.8874	789.91
313.26 K, 14074 kPa, x2 = 0.8874	803.72
313.27 K, 16066 kPa, x2 = 0.8874	815
313.27 K, 19015 kPa, x2 = 0.8874	829.45
313.29 K, 14002 kPa, x2 = 0.4641	766.59
323.11 K, 18008 kPa, x2 = 0.6797	792.77
323.14 K, 11997 kPa, x2 = 0.2483	736.47
323.15 K, 16006 kPa, x2 = 0.4641	758.48
323.17 K, 7997 kPa, x2 = 0.4641	747.66
323.17 K, 14005 kPa, x2 = 0.4641	755.92
323.17 K, 19002 kPa, x2 = 0.6797	795.98
323.19 K, 9992 kPa, x2 = 0.6797	757.97
323.2 K, 9999 kPa, x2 = 0.2483	734.59
323.2 K, 11998 kPa, x2 = 0.6797	768.5
323.2 K, 16011 kPa, x2 = 0.2483	739.99
323.2 K, 18000 kPa, x2 = 0.2483	741.72
323.23 K, 14011 kPa, x2 = 0.2483	738.22
323.23 K, 19001 kPa, x2 = 0.2483	742.54
323.25 K, 16042 kPa, x2 = 0.6797	785.42
323.25 K, 19040 kPa, x2 = 0.8874	798.97
323.26 K, 10008 kPa, x2 = 0.4641	750.42
323.26 K, 12004 kPa, x2 = 0.4641	753.18
323.26 K, 19006 kPa, x2 = 0.4641	762.09
323.27 K, 8000 kPa, x2 = 0.2483	732.65
323.27 K, 18003 kPa, x2 = 0.4641	760.86
323.3 K, 14004 kPa, x2 = 0.6797	777.17
323.31 K, 13971 kPa, x2 = 0.8874	764.29
323.31 K, 18051 kPa, x2 = 0.8874	793.06
323.32 K, 11984 kPa, x2 = 0.8874	745.06
323.32 K, 16015 kPa, x2 = 0.8874	779.89
333.05 K, 15991 kPa, x2 = 0.2483	732.43
333.06 K, 8008 kPa, x2 = 0.2483	724.69
333.06 K, 18013 kPa, x2 = 0.2483	734.27
333.07 K, 18027 kPa, x2 = 0.6797	770.02
333.07 K, 19007 kPa, x2 = 0.2483	735.15
333.09 K, 18042 kPa, x2 = 0.8874	758.98
333.11 K, 12010 kPa, x2 = 0.8874	701.45
333.14 K, 10000 kPa, x2 = 0.2483	726.64
333.14 K, 11987 kPa, x2 = 0.6797	745.9
333.14 K, 18003 kPa, x2 = 0.4641	751.23
333.14 K, 19000 kPa, x2 = 0.6797	773.23
333.16 K, 10004 kPa, x2 = 0.4641	739.87
333.16 K, 11998 kPa, x2 = 0.4641	742.85
333.16 K, 12018 kPa, x2 = 0.2483	728.6
333.16 K, 16006 kPa, x2 = 0.4641	748.54
333.16 K, 19039 kPa, x2 = 0.8874	765.91
333.17 K, 8004 kPa, x2 = 0.4641	736.7
333.17 K, 13998 kPa, x2 = 0.6797	754.83
333.17 K, 14005 kPa, x2 = 0.8874	721.01
333.17 K, 14013 kPa, x2 = 0.2483	730.5
333.19 K, 13997 kPa, x2 = 0.4641	745.71
